Earlier results in patent US6514973B1, “Compositions for the treatment and prevention of neurological and pathopsychological diseases” (Merck Patent Geseilschaft Mit Beschrankter Haftung, priority 1998, dated 2003).

time until appearance in the blood after oral administration: about 30 minutes
Substance: Phosphatidylserines
